Laboratory results reported in patent US10695334B2, “Heteroaromatic carboxamide derivatives as plasma kallikrein inhibitors” (Boehringer Ingelheim International GmbH, priority 2018, dated 2020).

Experiments:
Assay type in all cases: biochemical
Human PKK [1] = target: T1, Human PKK (Homo sapiens (Human), UniProt P03952); assay: Inhibition of PKK, endpoint assay (human PKK); conditions: substrate H-Pro-Phe-Arg-AMC, 1 h room temperature
Protocol: Subsequently, PPACK II (Calbiochem) was added as a stop solution to achieve a final concentration of 1 μM and fluorescence was measured using an Envision Reader (PerkinElmer) with the wavelength excitation setting of 355 nm and the wavelength emission setting of 460 nm.

[2] = target: PKK in kaolin activated human platelet poor plasma (Homo sapiens (Human), UniProt P03952); assay: Inhibition of PKK in kaolin activated human PPP; conditions: global fit over 25, 75, 250, 750 μg/mL kaolin
Protocol: Platelet poor plasma (PPP) obtained from human wholeblood, anticoagulated with Na-Citrat, was incubated with various concentrations of the test compound together with either 25, 75, 250, or 750 μg/mL kaolin in assay buffer for 20 min at 37° C. such that for each kaolin dose used a concentration response was obtained for the test compound.

Human PKK [3] = target: T1, Human PKK; assay: Inhibition of PKK (Ki), kinetic assay; conditions: 24° C., IC50 corrected for KM
Protocol: Measurements were performed in a kinetic interval every 2nd minute for 16 min using a Spectramax M5 (Molecular Devices) with the following settings of the wavelength excitation of 350 nm and wavelength emission of 450 nm. The number of the compound corresponds to the number of the Example in the experimental section.
The pIC50 values were then fitted using a four-parametric fitting procedure using GraphPad Prism (version 6; GraphPad Software, Inc.).
(§1) Where the IC50 is in molar and the KM value in mM.

human TK1 = human TK1 (Homo sapiens (Human), UniProt P06870); assay: Inhibition of TK1 (Ki); conditions: column head prints IC50, text above the table says Ki values
Protocol: The ability of compounds of formula (I) to inhibit plasma kallikrein (PKK), Factor Xlla (FXIIa), Factor Xla (FXIa), Factor Xa (FXa), Factor Ila (alpha-thrombin; FIIa), plasmin, trypsin, tissue kallikrein 1 (TK1), Factor VIIa (FVIIa), or FVIIa complexed with Tissue Factor, phospholipids and CaCl2 (FVIIa/TF/PL/CaCl2) was determined using the following biochemical assays in assay buffer (100 mM Tris, 150 mM NaCL, adjusted to a pH of 7.8 with HCl, and containing 0.1% (w/v) BSA and 0.05% (v/v) Tween20) in the presence of 1% (v/v) DMSO: EVALUATION OF THE INHIBITION OF PKK USING AN ENDPOINT ASSAY Human PKK (0.01 U/mL; Enzyme Research Laboratories) or rat PKK (0.625 nM; produced in-house) was incubated for 1 h at room temperature with 0.10 μM fluorogenic substrate H-Pro-Phe-Arg-AMC (11295 from Bachem) and various concentrations of the test compound in assay buffer. Subsequently, PPACK II (Calbiochem) was added as a stop solution to achieve a final concentration of 1 μM and fluorescence was measured using an Envision Reader (PerkinElmer) with the wavelength excitation setting of 355 nm and the wavelength emission setting of 460 nm.
Prior to the assay, human TK1 (R&D Systems) was activated by incubation with human trypsin (Calbiochem) in a 1:10,000 ratio for 15 min at 37° C. For assaying TK1 inhibitory activity, activated TK1 (31.25 nM or 1 U/mL) was incubated at 24° C. with 0.1 mM fluorogenic substrate H-Pro-Phe-Arg-AMC (11295 from Bachem) and various concentrations of the test compound in assay buffer. Measurements were performed in a kinetic interval every 2nd minute for 16 min using a Spectramax M5 (Molecular Devices) with the following settings of the wavelength excitation of 350 nm and wavelength emission of 450 nm.
The average Vmax values for the time interval from 2 to 12 min after initiation of the assay (expressed as either delta OD/min for assays using a chromogenic substrate or delta RFU/min for assays using a fluorigenic substrate, respectively) were plotted versus the Log of the concentration in molar of the evaluated inhibitor compound. The pIC50 values were then fitted using a four-parametric fitting procedure using GraphPad Prism (version 6; GraphPad Software, Inc.). Respective Ki values were obtained by correction of the IC50 values for the respective KM value of the used substrate (see Table A for the obtained KM values of the used substrates) using the following formula: […]
as §1

Sequence of human TK1 (P06870 25-262): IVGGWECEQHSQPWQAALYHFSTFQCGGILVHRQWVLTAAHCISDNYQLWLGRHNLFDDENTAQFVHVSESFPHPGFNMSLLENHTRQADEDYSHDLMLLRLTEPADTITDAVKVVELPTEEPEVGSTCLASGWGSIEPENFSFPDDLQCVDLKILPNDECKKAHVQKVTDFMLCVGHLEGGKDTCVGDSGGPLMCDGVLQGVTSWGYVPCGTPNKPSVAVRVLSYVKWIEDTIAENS
Sequence of PKK in kaolin activated human platelet poor plasma (P03952 391-638): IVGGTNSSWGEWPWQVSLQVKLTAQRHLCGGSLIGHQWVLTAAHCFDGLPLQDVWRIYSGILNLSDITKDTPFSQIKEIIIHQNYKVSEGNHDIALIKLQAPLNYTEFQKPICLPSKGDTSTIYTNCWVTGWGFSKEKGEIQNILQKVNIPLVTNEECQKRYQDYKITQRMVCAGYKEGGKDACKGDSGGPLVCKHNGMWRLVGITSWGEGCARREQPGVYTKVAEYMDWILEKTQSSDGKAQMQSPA
Sequence of PKK in kaolin activated human platelet poor plasma (P03952 20-390 partner): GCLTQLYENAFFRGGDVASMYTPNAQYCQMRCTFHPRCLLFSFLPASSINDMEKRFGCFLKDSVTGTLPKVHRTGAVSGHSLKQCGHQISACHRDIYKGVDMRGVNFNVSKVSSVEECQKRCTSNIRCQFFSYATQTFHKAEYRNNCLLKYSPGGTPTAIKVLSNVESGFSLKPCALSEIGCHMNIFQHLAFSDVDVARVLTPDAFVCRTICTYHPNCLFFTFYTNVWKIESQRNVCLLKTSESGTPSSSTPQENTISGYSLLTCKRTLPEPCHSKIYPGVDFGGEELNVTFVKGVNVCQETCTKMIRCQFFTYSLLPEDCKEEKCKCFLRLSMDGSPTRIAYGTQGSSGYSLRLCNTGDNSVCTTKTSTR
T1 sequence (P03952 391-638): as the sequence (P03952 391-638) above
T1 sequence (P03952 20-390 partner): as the sequence (P03952 20-390 partner) above

IC50 (Human PKK [1]) [nM]	IC90 [2] [nM]	Ki (Human PKK [3]) [nM]	IC50 (human TK1) [nM]	Compound
7	4980	2	> 10000	Cc1nc(N2CCC(F)(F)C2)ccc1Cn1cc(C(=O)N[C@@H]2CCc3c2n[nH]c3C)cn1 [Example 37, 1-{[6-(3,3-Difluoropyrrolidin-1-yl)-2-methylpyridin-3-yl]methyl}-N-[(6R)-3-methyl-2H,4H,5H,6H-cyclopenta[c]pyrazol-6-yl]-1H-pyrazole-4-carboxamide]
0.9	445	0.4	> 10000	Cc1nc(N2C[C@@H]3[C@H](C)[C@@H]3C2)ccc1Cn1cc(C(=O)N[C@@H]2CCc3c2n[nH]c3C)cn1 [Example 47, N-[(6R)-3-Methyl-2H,4H,5H,6H-cyclopenta[c]pyrazol-6-yl]-1-({2-methyl-6-[(1R,5S,6S)-6-methyl-3-azabicyclo[3.1.0]hexan-3-yl]pyridin-3-yl}methyl)-1H-pyrazole-4-carboxamide]
7	3480	5	> 10000	Cc1nc(N2CC3CC3C2)ccc1Cn1nnc(C(=O)N[C@@H]2CCc3c(C)n[nH]c32)n1 (stereo partly drawn) [Example 9, 2-[(6-{3-Azabicyclo[3.1.0]hexan-3-yl}-2-methylpyridin-3-yl)methyl]-N-[(6R)-3-methyl-1H,4H,5H,6H-cyclopenta[c]pyrazol-6-yl]-2H-1,2,3,4-tetrazole-5-carboxamide]
3	444	3	> 10000	Cc1[nH]nc2c1CC[C@H]2NC(=O)c1cn(Cc2ccc(N3CC4(CC4)C3)nc2)cn1 [Example 104, 1-[(6-{5-Azaspiro[2.3]hexan-5-yl}pyridin-3-yl)-methyl]-N-[(6R)-3-methyl-2H,4H,5H,6H-cyclo-penta[c]pyrazol-6-yl]-1H-imidazole-4-carboxamide]
1	3090	2	> 10000	Cc1nc(N2CC3CC3C2)ccc1Cn1cc(C(=O)N[C@@H]2CCc3c(C)n[nH]c32)c(Cl)n1 (stereo partly drawn) [Example 12, 1-[(6-{3-Azabicyclo[3.1.0]hexan-3-yl}-2-methylpyridin-3-yl)methyl]-3-chloro-N-[(6R)-3-methyl-1H,4H,5H,6H-cyclopenta[c]pyrazol-6-yl]-1H-pyrazole-4-carboxamide]
1	5480	4	> 10000	Cc1nc(N2CC3CC3C2)ccc1Cn1cc(C(=O)N[C@@H]2CCc3c2n[nH]c3C)nc1Cl (stereo partly drawn) [Example 102, 1-[(6-{3-Azabicyclo[3.1.0]hexan-3-yl}-2-methyl-pyridin-3-yl)methyl]-2-chloro-N-[(6R)-3-methyl-2H,4H,5H,6H-cyclopenta[c]pyrazol-6-yl]-1H-imidazole-4-carboxamide]
1	–	0.3	> 10000	Cc1nc(N2CC3CC3C2)ccc1Cn1cc(C(=O)N[C@@H]2CCc3c(C)n[nH]c32)c(C)n1 (stereo partly drawn) [Example 19, 1-[(6-{3-Azabicyclo[3.1.0]hexan-3-yl}-2-methyl-pyridin-3-yl)methyl]-3-methyl-N-[(6R)-3-methyl-1H,4H,5H,6H-cyclopenta[c]pyrazol-6-yl]-1H-pyrazole-4-carboxamide]
1	–	0.2	> 10000	COc1nn(Cc2ccc(N3CC4CC4C3)nc2C)cc1C(=O)N[C@@H]1CCc2c(C)n[nH]c21 (stereo partly drawn) [Example 20, 1-[(6-{3-Azabicyclo[3.1.0]hexan-3-yl}-2-methyl-pyridin-3-yl)methyl]-3-methoxy-N-[(6R)-3-methyl-1H,4H,5H,6H-cyclopenta[c]pyrazol-6-yl]-1H-pyrazole-4-carboxamide]
1	598	–	–	Cc1nc(N2CC3(CC3)C2)ccc1Cn1cc(C(=O)N[C@@H]2CCc3c(C)n[nH]c32)cn1 [Example 11]
2	545	1	–	Cc1nc(N2CC(C)(C)C2)ccc1Cn1cc(C(=O)N[C@@H]2CCc3c2n[nH]c3C)cn1 [Example 67, 1-{[6-(3,3-Dimethylazetidin-1-yl)-2-methylpyridin-3-yl]methyl}-N-[(6R)-3-methyl-2H,4H,5H,6H-cyclopenta[c]pyrazol-6-yl]-1H-pyrazole-4-carboxamide]
0.9	–	0.1	> 10000	COCc1nn(Cc2ccc(N3CC4CC4C3)nc2C)cc1C(=O)N[C@@H]1CCc2c(C)n[nH]c21 (stereo partly drawn) [Example 16, 1-[(6-{3-Azabicyclo[3.1.0]hexan-3-yl}-2-methyl-pyridin-3-yl)methyl]-3-(methoxymethyl)-N-[(6R)-3-methyl-1H,4H,5H,6H-cyclopenta[c]pyrazol-6-yl]-1H-pyrazole-4-carboxamide]
2	–	0.1	> 10000	COCc1nn(Cc2ccc(N3CC4(CC4)C3)nc2C)cc1C(=O)N[C@@H]1CCc2c(C)n[nH]c21 [Example 22, 1-[(6-{5-Azaspiro[2.3]hexan-5-yl}-2-methylpyridin-3-yl)methyl]-3-(methoxymethyl)-N-[(6R)-3-methyl-1H,4H,5H,6H-cyclopenta[c]pyrazol-6-yl]-1H-pyrazole-4-carboxamide]

Compound	IC50 (Human PKK [1]) [nM]	IC90 [2] [nM]	Ki (Human PKK [3]) [nM]	IC50 (human TK1) [nM]
Cc1nc(N2CC3CC3C2)ccc1Cc1c[nH]c(C(=O)N[C@@H]2CCc3c(C)n[nH]c32)c1 (stereo partly drawn) [Example 7, 4-[(6-{3-Azabicyclo[3.1.0]hexan-3-yl}-2-methylpyridin-3-yl)methyl]-N-[(6R)-3-methyl-1H,4H,5H,6H-cyclopenta[c]pyrazol-6-yl]-1H-pyrrole-2-carboxamide]	1	342	0.7	> 10000
Cc1nc(N2CC3CC3C2)ccc1Cn1cc(C(=O)N[C@@H]2CCc3c(C)n[nH]c32)cn1 (stereo partly drawn) [Example 3, 1-[(6-{3-Azabicyclo[3.1.0]hexan-3-yl}-2-methylpyridin-3-yl)methyl]-N-[(6R)-3-methyl-1H,4H,5H,6H-cyclopenta[c]pyrazol-6-yl]-1H-pyrazole-4-carboxamide]	0.8	679	0.5	> 10000
Cc1nc(N2CC3C(C2)C3(F)F)ccc1Cn1cc(C(=O)N[C@@H]2CCc3c(C)n[nH]c32)c2cncnc21 (stereo partly drawn) [Example 13, 7-[(6-{6,6-Difluoro-3-azabicyclo[3.1.0]hexan-3-yl}-2-methylpyridin-3-yl)methyl]-N-[(6R)-3-methyl-1H,4H,5H,6H-cyclopenta[c]pyrazol-6-yl]-7H-pyrrolo[2,3-d]pyrimidine-5-carboxamide]	0.5	–	0.1	> 10000
Cc1nc(N2CC3CC3C2)ccc1Cn1cc(C(=O)N[C@@H]2CCc3c(C)n[nH]c32)c2cncnc21 (stereo partly drawn) [Example 17, 7-[(6-{3-Azabicyclo[3.1.0]hexan-3-yl}-2-methyl-pyridin-3-yl)methyl]-N-[(6R)-3-methyl-1H,4H,5H,6H-cylcopenta[c]pyrazol-6-yl]-7H-pyrrolo[2,3-d]pyrimidine-5-carboxamide]	0.9	–	0.1	> 10000
Cc1nc(N2CC3CC3C2)ncc1Cn1cc(C(=O)N[C@@H]2CCc3c(C)n[nH]c32)c2cncnc21 (stereo partly drawn) [Example 23, 7-[(2-{3-Azabicyclo[3.1.0]hexan-3-yl}-4-methyl-pyrimidin-5-yl)methyl]-N-[(6R)-3-methyl-1H,4H,5H,6H-cyclopenta[c]pyrazol-6-yl]-7H-pyrrolo[2,3-d]pyrimidine-5-carboxamide]	2	–	0.3	> 10000
